Where two headings read alike, the source gives them in different places.
Columns and labels:
Format in all cases: cell-based
[1] = biological target: TRPV3 (Homo sapiens (Human), UniProt Q8NET8); assay: Whole-cell patch clamp of TRPV3 mediated inward current; settings: HEK293/TREx TRPV3 cells, approximate values
Description: Whole-cell patch clamp experiments permit the detection of currents through the TRPV3 channel in the cell line described above. A glass electrode is brought into contact with a single cell and the membrane is then ruptured, permitting control of the voltage of the cell membrane and measurement of currents flowing across the membrane using the amplifier attached to the electrode. A perfusion system permits control of the extracellular solution, including the addition of blockers and activators of the current. The current can be activated by heating this solution to 28° C. or warmer or by addition of 20 μM 2-APB to the solution.
TRPV3 cells were induced 20-48 hours, removed from growth plates, and replated at low density (to attain good single-cell physical separation) on glass coverslips for measurement. In some cases, cells were grown in low density overnight on glass coverslips. Patch clamp recordings were made in the whole-cell mode with a holding potential of −40 mV. Every 5 seconds, a voltage ramp was applied from −120 to +100 mV, 400 ms in duration. Currents elicited were quantified at −80 mV and +80 mV. The internal solution consisted of 140 mM cesium aspartate, 10 mM EGTA, 2.27 mM MgCl2, 1.91 mM CaCl2 and 10 mM HEPES, pH to 7.2 with KOH; with 50 nM calculated free Ca^2+. External solution was Ringer's solution described above. Upon addition of 2-APB or upon heating of the extraceullar solution as described above, TRPV3 current was induced only in TRPV3-expressing cells and not in parental HEK293 TREx cells. […] Removal of the stimulus caused most of the current to go away, and inhibitor addition could still inhibit this current.
The data includes approximate IC50 values for inhibition of TRPV3 mediated inward current as assessed by patch-clamp.

[2] = biological target: hERG (Homo sapiens (Human), UniProt Q12809); assay: Patch clamp selectivity, hERG current; settings: tested at concentrations up to 30 μM, IC50 estimated
hERG, sequence (Q12809 whole entry): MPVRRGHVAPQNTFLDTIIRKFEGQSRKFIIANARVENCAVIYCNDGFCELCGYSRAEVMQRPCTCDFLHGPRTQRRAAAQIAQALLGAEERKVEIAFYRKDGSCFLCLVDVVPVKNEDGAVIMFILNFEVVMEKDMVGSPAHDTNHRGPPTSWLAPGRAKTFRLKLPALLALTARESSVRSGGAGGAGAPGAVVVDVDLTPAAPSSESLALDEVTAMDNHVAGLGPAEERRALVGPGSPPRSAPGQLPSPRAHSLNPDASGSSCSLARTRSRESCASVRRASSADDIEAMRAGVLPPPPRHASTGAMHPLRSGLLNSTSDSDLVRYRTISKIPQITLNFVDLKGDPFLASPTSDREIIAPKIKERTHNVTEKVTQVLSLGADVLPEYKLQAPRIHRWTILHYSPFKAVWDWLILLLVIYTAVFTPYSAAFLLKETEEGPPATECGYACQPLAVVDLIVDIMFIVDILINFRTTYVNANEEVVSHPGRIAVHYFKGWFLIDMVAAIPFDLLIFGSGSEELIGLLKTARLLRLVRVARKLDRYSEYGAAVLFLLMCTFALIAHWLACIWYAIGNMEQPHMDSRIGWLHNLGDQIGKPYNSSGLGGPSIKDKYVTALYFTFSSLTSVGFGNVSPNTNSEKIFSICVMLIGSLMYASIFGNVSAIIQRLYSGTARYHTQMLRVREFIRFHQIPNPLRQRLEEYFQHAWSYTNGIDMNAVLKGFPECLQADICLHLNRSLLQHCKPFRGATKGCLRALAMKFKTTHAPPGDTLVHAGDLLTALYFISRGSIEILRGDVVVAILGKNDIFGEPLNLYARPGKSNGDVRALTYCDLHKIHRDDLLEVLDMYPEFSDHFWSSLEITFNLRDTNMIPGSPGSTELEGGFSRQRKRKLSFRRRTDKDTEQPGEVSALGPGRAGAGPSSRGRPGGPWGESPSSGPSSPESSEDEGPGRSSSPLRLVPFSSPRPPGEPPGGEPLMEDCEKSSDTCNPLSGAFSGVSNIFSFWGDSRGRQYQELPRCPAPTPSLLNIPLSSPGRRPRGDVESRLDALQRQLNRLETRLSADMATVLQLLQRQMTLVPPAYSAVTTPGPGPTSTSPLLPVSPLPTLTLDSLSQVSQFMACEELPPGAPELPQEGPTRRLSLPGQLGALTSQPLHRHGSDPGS
Description: (§1) To determine whether compounds were selective for TRPV3 inhibition over inhibition of other ion channel types, the human ERG (hERG), NaV1.2, and TRPV1 (hTRPV1) channels and the rat TRPV6 (rTRPV6) channel were also stably transfected and expressed or induced to express in mammalian cell lines. The methods for measuring currents from these channels are well-established and have been described in numerous publications (See, Weerapura et al., 2002, J Physiology 540: 15-27; Rush et al., 2005, J Physiology 564: 808-815; Caterina et al., 1997, Nature 389: 816-824; Hoenderhop et al., 2001, J Physiology 537: 747-761; Clapham et al., 2003, Pharmacol Rev 55: 591-596). Compounds of interest were tested against these channels at concentrations up to 30 μM, and the resulting data were used to estimate IC50.

[3] = biological target: NaV1.2 (Homo sapiens (Human), UniProt Q99250); assay: Qpatch selectivity, NaV1.2 inward current; settings: tested at concentrations up to 30 μM, IC50 estimated
NaV1.2, sequence (Q99250 whole entry): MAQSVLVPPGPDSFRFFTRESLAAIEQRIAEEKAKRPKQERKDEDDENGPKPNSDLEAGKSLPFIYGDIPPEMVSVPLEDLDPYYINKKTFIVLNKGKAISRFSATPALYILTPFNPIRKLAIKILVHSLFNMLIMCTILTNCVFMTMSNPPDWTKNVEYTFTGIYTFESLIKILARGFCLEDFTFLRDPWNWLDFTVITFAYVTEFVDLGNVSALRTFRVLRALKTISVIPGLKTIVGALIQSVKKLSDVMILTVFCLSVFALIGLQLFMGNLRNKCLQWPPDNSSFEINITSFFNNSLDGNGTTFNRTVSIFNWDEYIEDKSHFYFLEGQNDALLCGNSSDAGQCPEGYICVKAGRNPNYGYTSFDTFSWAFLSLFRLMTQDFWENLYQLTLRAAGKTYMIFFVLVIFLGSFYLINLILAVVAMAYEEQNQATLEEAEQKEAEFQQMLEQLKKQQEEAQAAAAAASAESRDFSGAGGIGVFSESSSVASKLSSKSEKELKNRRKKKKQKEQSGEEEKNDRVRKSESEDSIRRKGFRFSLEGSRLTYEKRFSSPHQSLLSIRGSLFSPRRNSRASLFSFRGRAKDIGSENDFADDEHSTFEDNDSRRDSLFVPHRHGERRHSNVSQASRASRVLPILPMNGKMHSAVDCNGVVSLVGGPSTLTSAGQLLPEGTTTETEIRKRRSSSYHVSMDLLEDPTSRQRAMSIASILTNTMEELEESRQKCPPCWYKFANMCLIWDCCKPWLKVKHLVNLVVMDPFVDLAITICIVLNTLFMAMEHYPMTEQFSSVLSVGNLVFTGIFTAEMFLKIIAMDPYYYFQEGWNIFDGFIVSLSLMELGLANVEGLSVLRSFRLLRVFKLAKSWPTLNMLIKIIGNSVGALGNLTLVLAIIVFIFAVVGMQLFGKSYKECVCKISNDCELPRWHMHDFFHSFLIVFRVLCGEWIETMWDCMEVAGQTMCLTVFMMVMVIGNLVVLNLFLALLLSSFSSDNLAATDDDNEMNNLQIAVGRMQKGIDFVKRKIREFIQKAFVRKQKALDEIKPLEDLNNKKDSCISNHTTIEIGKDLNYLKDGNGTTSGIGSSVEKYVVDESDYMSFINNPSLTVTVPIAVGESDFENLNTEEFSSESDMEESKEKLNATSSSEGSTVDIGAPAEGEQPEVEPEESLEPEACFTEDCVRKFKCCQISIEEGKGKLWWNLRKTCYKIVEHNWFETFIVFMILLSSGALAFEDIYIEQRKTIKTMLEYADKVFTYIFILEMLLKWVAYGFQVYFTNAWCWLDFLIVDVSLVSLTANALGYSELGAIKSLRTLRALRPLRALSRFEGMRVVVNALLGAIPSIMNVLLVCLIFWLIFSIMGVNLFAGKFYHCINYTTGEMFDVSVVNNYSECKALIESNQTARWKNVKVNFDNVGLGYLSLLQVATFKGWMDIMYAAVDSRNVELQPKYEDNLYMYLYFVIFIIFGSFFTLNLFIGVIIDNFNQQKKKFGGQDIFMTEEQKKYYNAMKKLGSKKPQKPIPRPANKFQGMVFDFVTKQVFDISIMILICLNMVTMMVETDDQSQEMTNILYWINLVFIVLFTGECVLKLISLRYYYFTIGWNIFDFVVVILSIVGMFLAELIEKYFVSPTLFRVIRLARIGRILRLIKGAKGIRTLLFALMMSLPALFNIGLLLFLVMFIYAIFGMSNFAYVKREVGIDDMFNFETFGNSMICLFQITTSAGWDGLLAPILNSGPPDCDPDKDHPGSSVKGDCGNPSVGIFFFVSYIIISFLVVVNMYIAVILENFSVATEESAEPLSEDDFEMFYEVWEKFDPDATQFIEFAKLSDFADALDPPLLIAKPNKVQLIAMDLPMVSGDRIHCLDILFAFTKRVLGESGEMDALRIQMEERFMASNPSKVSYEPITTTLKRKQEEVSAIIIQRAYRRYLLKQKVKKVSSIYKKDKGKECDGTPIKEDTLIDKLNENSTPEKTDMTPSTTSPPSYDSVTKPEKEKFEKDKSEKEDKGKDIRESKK
Description: as §1

[4] = biological target: TRPV1 (hTRPV1) (Homo sapiens (Human), UniProt Q8NER1); assay: Patch clamp selectivity, TRPV1 inward current; settings: tested at concentrations up to 30 μM, IC50 estimated
TRPV1 (hTRPV1), sequence (Q8NER1 whole entry): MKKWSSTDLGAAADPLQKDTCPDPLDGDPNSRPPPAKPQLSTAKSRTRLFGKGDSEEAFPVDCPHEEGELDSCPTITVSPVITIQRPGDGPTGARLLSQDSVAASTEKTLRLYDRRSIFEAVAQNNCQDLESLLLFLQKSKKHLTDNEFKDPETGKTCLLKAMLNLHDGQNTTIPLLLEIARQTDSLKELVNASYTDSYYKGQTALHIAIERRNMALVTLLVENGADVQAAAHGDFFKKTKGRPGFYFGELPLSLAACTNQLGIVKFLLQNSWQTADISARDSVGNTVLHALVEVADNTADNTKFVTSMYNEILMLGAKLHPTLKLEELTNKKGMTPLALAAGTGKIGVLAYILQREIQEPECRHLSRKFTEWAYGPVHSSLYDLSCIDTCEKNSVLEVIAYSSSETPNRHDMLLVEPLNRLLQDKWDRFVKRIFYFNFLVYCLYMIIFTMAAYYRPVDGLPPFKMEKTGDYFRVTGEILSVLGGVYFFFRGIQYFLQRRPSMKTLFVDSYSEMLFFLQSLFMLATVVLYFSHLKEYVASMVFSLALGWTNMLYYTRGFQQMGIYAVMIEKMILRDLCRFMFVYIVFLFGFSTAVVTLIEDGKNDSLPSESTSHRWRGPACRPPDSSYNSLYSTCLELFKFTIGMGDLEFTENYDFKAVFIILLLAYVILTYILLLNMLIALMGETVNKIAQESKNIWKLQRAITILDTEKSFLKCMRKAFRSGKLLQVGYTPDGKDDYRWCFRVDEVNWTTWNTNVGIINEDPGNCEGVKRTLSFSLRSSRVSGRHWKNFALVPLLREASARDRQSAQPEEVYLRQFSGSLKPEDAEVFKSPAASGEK
Description: as §1

[5] = Phase 1 inward current, read-out: TRPV3 Phase 1 IC50 inward
[6] = Phase 2 inward current, read-out: TRPV3 Phase 2 IC50 inward

TRPV3, sequence (Q8NET8 whole entry, species assumed, the tested form may be a part): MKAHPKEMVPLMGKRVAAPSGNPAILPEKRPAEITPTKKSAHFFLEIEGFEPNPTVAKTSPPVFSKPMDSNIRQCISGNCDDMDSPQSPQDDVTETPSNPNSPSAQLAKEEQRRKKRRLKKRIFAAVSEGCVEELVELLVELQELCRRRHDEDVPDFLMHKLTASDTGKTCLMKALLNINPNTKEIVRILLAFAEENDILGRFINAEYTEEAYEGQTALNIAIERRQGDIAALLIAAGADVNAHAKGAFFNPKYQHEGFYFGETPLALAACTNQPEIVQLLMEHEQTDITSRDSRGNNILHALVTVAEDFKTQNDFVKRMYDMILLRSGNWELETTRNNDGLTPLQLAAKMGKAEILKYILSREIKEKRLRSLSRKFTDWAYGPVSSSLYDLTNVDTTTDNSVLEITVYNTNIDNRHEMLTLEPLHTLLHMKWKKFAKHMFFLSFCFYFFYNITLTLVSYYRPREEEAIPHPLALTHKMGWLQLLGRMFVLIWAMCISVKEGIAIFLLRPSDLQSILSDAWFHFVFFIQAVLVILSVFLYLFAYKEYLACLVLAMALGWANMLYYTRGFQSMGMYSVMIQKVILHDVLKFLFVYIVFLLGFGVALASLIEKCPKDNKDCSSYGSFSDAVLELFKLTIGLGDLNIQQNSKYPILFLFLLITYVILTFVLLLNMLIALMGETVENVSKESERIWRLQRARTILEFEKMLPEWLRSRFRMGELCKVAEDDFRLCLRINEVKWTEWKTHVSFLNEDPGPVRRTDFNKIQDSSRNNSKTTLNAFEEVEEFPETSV

Row | SMILES | IC50 [1, 5] | IC50 [1, 6] | IC50 [3] | IC50 [4] | IC50 [2]
1 | COC(=O)c1cnc(SCC(=O)N2CCCc3cccc(C)c32)c(Cl)c1 | ≤ 5 µM | ≤ 5 µM | – | – | –
2 | Cc1cccc2c1N(C(=O)CSc1ncc(Cl)cc1Cl)CCC2 | ≤ 0.2 µM | ≤ 0.2 µM | – | – | –
3 | COc1cccc2c1N(C(=O)CSc1ncccc1Cl)CCC2 | ≤ 0.5 µM | ≤ 0.5 µM | – | – | –
4 | Cc1cccc2c1N(C(=O)CSc1ncccc1C(F)(F)F)CCC2 [Compound 8, 1-(8-methyl-3,4-dihydro-2H-quinolin-1-yl)-2-(3-trifluoromethyl-pyridin-2-ylsulfanyl)-ethanone] | ≤ 1 µM | ≤ 5 µM | – | – | –
5 | Cc1cccc2c1N(C(=O)CSc1ncc(C(F)(F)F)cc1F)CCC2 | ≤ 0.2 µM | ≤ 0.2 µM | – | – | –
6 | O=C(CSc1ccc(Cl)cn1)N1CCCc2ccccc21 [Compound 21, 2-(5-chloro-pyridine-2-ylthio)-1-(3,4-dihydroquinolin-1-(2H)-yl)-ethanone] | ≤ 5 µM | ≤ 5 µM | – | – | –
7 | CCc1cc(C(F)(F)F)cnc1SCC(=O)N1CCCc2cccc(C)c21 | ≤ 5 µM | ≤ 5 µM | – | – | –
8 | Cc1cccc2c1N(C(=O)CSc1ncc(C(F)(F)F)cc1Cl)CCC2 [Compound 10, 2-(3-chloro-5-trifluoromethyl-pyridine-2-ylsulfanyl)-1-(8-methyl-3,4-dihydro-2H-quinolin-1-yl)-ethanone] | ≤ 0.2 µM | ≤ 0.5 µM | – | – | –
9 | O=C(CSc1ccc(C(F)(F)F)cn1)N1CCCc2ccccc21 | ≤ 5 µM | ≤ 1 µM | ≥ 30 µM | – | –

More lines, main results first:

Row | IC50 [1, 5] | IC50 [1, 6] | IC50 [3] | IC50 [4] | SMILES | IC50 [2]
10 | ≤ 5 µM | ≤ 10 µM | – | – | Cc1ccc(SCC(=O)N2CCCc3cccc(C)c32)nc1 [Compound 24, 1-(8-Methyl-3,4-dihydro-2H-quinolin-1-yl)-2-(5-methyl-pyridin-2-ylsulfanyl)-ethanone] | –
11 | ≤ 0.5 µM | ≤ 0.5 µM | – | – | Cc1cccc2c1N(C(=O)CSc1ccc(Br)cn1)CCC2 | –
12 | ≤ 0.2 µM | ≤ 1 µM | ≥ 30 µM | – | Cc1cccc2c1N(C(=O)CSc1ncccc1Cl)CCC2 [Compound 20, 2-(3-chloro-pyridin-2-ylsulfanyl)-1-(8-methyl-3,4-dihydro-2H-quinolin-1-yl)-ethanone] | ≥ 10 µM
13 | ≤ 1 µM | ≤ 0.5 µM | – | – | Cc1cccc2c1N(C(=O)CSc1ncccc1C#N)CCC2 | –
14 | ≤ 5 µM | ≤ 10 µM | – | – | Cc1cccc2c1N(C(=O)CSc1ccccn1)CCC2 [Compound 12, 1-(8-methyl-3,4-dihydro-2H-quinolin-1-yl)-2-(pyridine-2-ylsulfanyl)-ethanone] | –
15 | ≤ 0.5 µM | ≤ 0.2 µM | ≥ 30 µM | ≥ 20 µM | Cc1cccc2c1N(C(=O)CSc1ccc(C(F)(F)F)cn1)CCC2 [Compound 6, 2-(5-trifluoromethyl-pyridine-2-ylsulfanyl)-1-(8-methyl-3,4-dihydro-2H-quinolin-1-yl)-ethanone] | ≥ 30 µM
16 | ≤ 5 µM | ≤ 1 µM | – | – | Cc1ccnc(SCC(=O)N2CCCc3cccc(C)c32)c1C | –
17 | ≤ 0.2 µM | ≤ 0.2 µM | – | – | Cc1cnc(SCC(=O)N2CCCc3cccc(C)c32)cc1C | –
18 | ≤ 10 µM | ≤ 5 µM | – | – | Cc1cccc2c1N(C(=O)CSc1ccc(C#N)cn1)CCC2 | –
19 | ≤ 10 µM | ≤ 10 µM | – | – | Cc1cccc2c1N(C(=O)CSc1cc(C#N)ccn1)CCC2 | –
20 | ≤ 0.5 µM | ≤ 0.5 µM | – | – | Cc1cccc2c1N(C(=O)CSc1ccc(Cl)cn1)CCC2 [Compound 16, 2-(5-Chloro-pyridin-2-ylsulfanyl)-1-(8-methyl-3,4-dihydro-2H-quinolin-1-yl)-ethanone] | ≥ 5 µM
